Results reported in US10137113B2, “5-HT4 receptor agonist as a prokinetic agent” (RaQualia Pharma Inc., priority 2011, dated 2018).

Key:
[1] = tested on: gastric antrum of conscious dogs; experiment: Gastric antral motility by implanted force transducers, fasted conscious dogs, oral dosing; format: in vivo, dog
Procedure: (§1) GI motility was assessed by processing the signals from the force transducers implanted in dogs prepared for investigation of motility. Briefly, dogs were anesthetized with isoflurane and the abdominal cavity was opened under aseptic conditions. Extraluminal force transducers (F-12IS, Star Medical, Tokyo) were sutured onto the seromuscular layer of the gastric antrum, the gastric body, the duodenum, and the proximal colon. After the surgery, protective jackets were placed on the dogs and they were housed in individual cages. The dogs were fasted overnight before the experiment and placed in the shield room. The motility was measured with a telemetry system (GTS-800, Star Medical, Tokyo) and data acquired into a personal computer with the acquisition software (Eight Star, Star Medical, Tokyo). After confirmation of interdigestive migrating complex (IMC), the test drugs were administered orally. Gut motility was then recorded more than 5 hours (hrs). To measure the gastric motility quantitatively, motor indexes that represent areas of contractions were calculated. The signals from the force transducer were acquired on a personal computer and analyzed by processing software (Analyze II; StarMedical). In the fasted state, the areas surrounded by the contraction curve and the baseline were determined every 2 hrs after administration. For standardization, the calculated areas were divided by the IMC peak height before administration, and they were used as the motor index (MI). Results are presented as the mean+/− standard error of the mean (S.E.M., N=4-5). Statistical analysis was performed with Dunnett's multiple comparison test using GraphPad Prism (GraphPad Software, Inc.).

[2] = tested on: proximal colon of conscious dogs; experiment: Proximal colon motility by implanted force transducers, fasted conscious dogs, oral dosing; format: in vivo; conditions: dog
Procedure: as §1

[3] = tested on: gastric antrum and duodenum of conscious dogs; experiment: Gastro-duodenum contractions by implanted force transducers, fasted conscious dogs, oral dosing; format: in vivo; conditions: dog, 0.3 mg/kg (dose that enhances proximal colon motility), FIG. 5
Procedure: GI motility was assessed by processing the signals from the force transducers implanted in dogs prepared for investigation of motility. Briefly, dogs were anesthetized with isoflurane and the abdominal cavity was opened under aseptic conditions. Extraluminal force transducers (F-12IS, Star Medical, Tokyo) were sutured onto the seromuscular layer of the gastric antrum, the gastric body, the duodenum, and the proximal colon. After the surgery, protective jackets were placed on the dogs and they were housed in individual cages. The dogs were fasted overnight before the experiment and placed in the shield room. The motility was measured with a telemetry system (GTS-800, Star Medical, Tokyo) and data acquired into a personal computer with the acquisition software (Eight Star, Star Medical, Tokyo). […] Gut motility was then recorded more than 5 hours (hrs). To measure the gastric motility quantitatively, motor indexes that represent areas of contractions were calculated. The signals from the force transducer were acquired on a personal computer and analyzed by processing software (Analyze II; StarMedical). In the fasted state, the areas surrounded by the contraction curve and the baseline were determined every 2 hrs after administration. For standardization, the calculated areas were divided by the IMC peak height before administration, and they were used as the motor index (MI). […]

Which “effects on GI motility / potency relative to other 5-HT4 agonists (cisapride, mosapride, tegaserod)” value ([1]; dog GI motility models) does the source give for `O=C(O)C1(CN2CCC(COc3noc4cccc(OCC(F)(F)F)c34)CC2)CCOCC1` [Compound A, 4-{[4-({[4-(2,2,2-trifluoroethoxy)-1,2-benzisoxazol-3-yl]-oxy}methyl)piperidin-1-yl]methyl}tetrahydro-2H-pyran-4-carboxylic acid] here?
Its value is “more than 100 times”.

And the “potency relative to cisapride in enhancing gastric antral motility” value ([1]; dog, fasted, oral)?
The value was “approximately 1000 times”.

What about the “minimum effective dose, change in motor index (MI) of gastric antral motility” value ([1]; dog, fasted, oral, 0 to 2 hour period after administration, statistical significance (Dunnett)) of the same compound?
The value was 1 micro g/kg.

And the “gastric antral motor activity” value ([1]; dog, fasted, oral, 0.1-10 micro g/kg, FIG. 1)?
The value was “increased the gastric antral motor activity in dose dependent manner”.

What about the “amplitude and frequency of contractions in the proximal colon” value ([2]; 1 micro g/kg, FIG. 4) of the same compound?
Its value is “enhanced”.

What about the “occurrence of giant migrating contractions” value ([2]; after treatment) of the same compound?
The value was “facilitated the occurrence of giant migrating contractions”.

How did the gastric antral motility ([1]; dog, fasted, oral, 3 mg/kg, FIG. 3) turn out when `CCOc1cc(N)c(Cl)cc1C(=O)NCC1CN(Cc2ccc(F)cc2)CCO1` (stereo not drawn) [mosapride] was run?
Its gastric antral motility is “tended to increase the antral motility”.

For `COCCCN1CCC(NC(=O)c2cc(Cl)c(N)c3c2OCC3)CC1` [prucalopride], which gastric antral motility ([1]; dog, fasted, oral, 0.1 mg/kg, FIG. 5) is on record?
The gastric antral motility was “stimulated gastric antral motility”.

And the “contractions of proximal colon” value ([2]; 0.1 mg/kg, FIG. 5)?
The value was “did not affect contractions of proximal colon”.

What about the colonic motor activity ([2]; 0.3 mg/kg, FIG. 5) of the same compound?
The colonic motor activity was “enhanced the colonic motor activity”.

What about the gastro-duodenum contractions [3] of the same compound?
Its gastro-duodenum contractions is “induced excessive gastro-duodenum contractions”.

Which gastric antral motility ([1]; dog, fasted, oral, 1 mg/kg, FIG. 2) does the source give for `COc1cc(N)c(Cl)cc1C(=O)NC1CCN(CCCOc2ccc(F)cc2)CC1OC` (stereo not drawn) [Cisapride, cisapride] here?
The gastric antral motility was “significantly increased gastric antral motility”.
